Test results reported in patent US10945969B2, “Compositions containing thymohydroquinone and their method of preparation” (SAMI LABS LIMITED, priority 2017, dated 2021).

Legend:
[1] = Long term stability study; assay type: physicochemical
[2] = compared with thymoquinone; cited from earlier work
[3] = Accelerated stability study; assay type: physicochemical; details: for THQ content by GC (%) / Difference in THQ content (%) / Percentage difference in THQ / TQ content by GC (%) / Difference in TQ content / Percentage difference in TQ: accelerated stability
[4] = compared with thymoquinone; cited from earlier work; remark: listed apart in the source
[5] = over the accelerated stability study

Structure (SMILES): Cc1cc(O)c(C(C)C)cc1O [THQ, thymohydroquinone]
- THQ content by GC (%) ([1]; 3rd month): 0.095%
- Difference in THQ content ([1]; 3rd month vs initial): 0.062%
- Percentage difference in THQ ([1]; 3rd month vs initial): +187.88%
- THQ content by GC (%) ([1]; 6th month): 0.138%
- Difference in THQ content ([1]; 6th month vs initial): 0.105%
- Percentage difference in THQ ([1]; 6th month vs initial): +318.18%
- Difference in THQ content ([1]; Initial (0 Month)): 0%
- Percentage difference in THQ ([1]; Initial (0 Month)): 0%
- THQ content by GC (%) ([1]; Initial (0 Month)): 0.033%
- antioxidant potential [2]: more potent
- THQ content by GC (%) ([3]; 1st month): 0.037%
- Difference in THQ content (%) ([3]; 1st month vs initial): 0.004%
- Percentage difference in THQ ([3]; 1st month vs initial): +12.12%
- THQ content by GC (%) ([3]; 2nd month): 0.041%
- Difference in THQ content (%) ([3]; 2nd month vs initial): 0.008%
- Percentage difference in THQ ([3]; 2nd month vs initial): +24.24%
- THQ content by GC (%) ([3]; 3rd month): 0.092%
- Difference in THQ content (%) ([3]; 3rd month vs initial): 0.059%
- Percentage difference in THQ ([3]; 3rd month vs initial): +178.78%
- THQ content by GC (%) ([3]; 6th month): 0.120%
- Difference in THQ content (%) ([3]; 6th month vs initial): 0.087%
- Percentage difference in THQ ([3]; 6th month vs initial): +263.63%
- Difference in THQ content (%) ([3]; Initial (0 month)): 0%
- Percentage difference in THQ ([3]; Initial (0 month)): 0%
- THQ content by GC (%) ([3]; Initial (0 month)): 0.033%
- thymohydroquinone quantity, trend [3, 5]: gradual increase
- anti-inflammatory potential [4]: more potent

Structure (SMILES): CC1=CC(=O)C(C(C)C)=CC1=O [TQ, thymoquinone]
- TQ content by GC (%) ([1]; 3rd month): 0.643%
- Difference in TQ content ([1]; 3rd month vs initial): 0.09%
- Percentage difference in TQ ([1]; 3rd month vs initial): −12.27%
- TQ content by GC (%) ([1]; 6th month): 0.634%
- Difference in TQ content ([1]; 6th month vs initial): 0.099%
- Percentage difference in TQ ([1]; 6th month vs initial): −13.50%
- Difference in TQ content ([1]; Initial (0 Month)): 0%
- Percentage difference in TQ ([1]; Initial (0 Month)): 0%
- TQ content by GC (%) ([1]; Initial (0 Month)): 0.733%
- TQ content by GC (%) ([3]; 1st month): 0.717%
- Difference in TQ content ([3]; 1st month vs initial): 0.016%
- Percentage difference in TQ ([3]; 1st month vs initial): −2.18%
- TQ content by GC (%) ([3]; 2nd month): 0.706%
- Difference in TQ content ([3]; 2nd month vs initial): 0.027%
- Percentage difference in TQ ([3]; 2nd month vs initial): −3.68%
- TQ content by GC (%) ([3]; 3rd month): 0.622%
- Difference in TQ content ([3]; 3rd month vs initial): 0.111%
- Percentage difference in TQ ([3]; 3rd month vs initial): −15.14%
- TQ content by GC (%) ([3]; 6th month): 0.548%
- Difference in TQ content ([3]; 6th month vs initial): 0.185%
- Percentage difference in TQ ([3]; 6th month vs initial): −25.23%
- Difference in TQ content ([3]; Initial (0 month)): 0%
- Percentage difference in TQ ([3]; Initial (0 month)): 0%
- TQ content by GC (%) ([3]; Initial (0 month)): 0.733%
- content of thymoquinone, trend [3, 5]: decrease
